Where two headings read alike, the source gives them in different places.
Legend:
[1] = system: K-Ras G12C (NCI-H358 cells); assay: Potency assay: pERK (AlphaLISA SureFire or In-Cell Western); type: cell-based; settings: Homo sapiens
Outline: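 NCI-H358 cells plated overnight, then treated 4 h at 37 °C with 10-point 3-fold DMSO dilutions (10 mM top stock), in duplicate. pERK1/2 read by AlphaLISA SureFire Ultra lysate assay or by In-Cell Western with DRAQ5 DNA stain. IC50 from 4-parameter sigmoidal fit of signal vs log concentration.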

[2] = system: NCI-H358 (K-Ras G12C); assay: CellTiter-Glo cell viability assay, 5-day treatment; type: cell-based; settings: Homo sapiens, NCI-H358, H358, K-Ras G12C; read-out: Additional H358 Cell Viability assay data (K-Ras G12C, IC50)
Outline: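 Five-day compound treatment of plated cells; luminescent read after ~30 min at RT. Percent-of-DMSO data fit to a four-parameter logistic model.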

[3] = molecular target: NRAS Q61K (Homo sapiens, UniProt P01111+P62937, Q61K); assay: Disruption of BRAF RBD interaction with Ras (FRET / MOA assay, with Cyclophilin A); type: biochemical; settings: NRAS Q61K; read-out: NRAS Q61K FRET data IC50
Outline: (§1)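 TR-FRET in 25 mM HEPES pH 7.3, 100 mM NaCl, 5 mM MgCl2, 0.1% BSA: 25 μM Cyclophilin A, 12.5 nM His6-Ras-GMPPNP, 50 nM GST-BRAF RBD with compound (10-point 3-fold series from 30 μM), 3 h at 25° C. Anti-His Eu/anti-GST APC added, 1.5 h more; IC50 from decreased FRET ratio versus DMSO.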

[4] = molecular target: NRAS Q61R (Homo sapiens, UniProt P01111+P62937, Q61R); assay: as above; type: biochemical; settings: NRAS Q61R; read-out: NRAS Q61R FRET data IC50
Outline: as §1

[5] = molecular target: NRAS G12C (Homo sapiens, UniProt P01111+P62937, G12C); assay: as above; type: biochemical
[6] = molecular target: KRAS G12D (Homo sapiens, UniProt P01116+P62937, G12D); assay: as above; type: biochemical
Outline: (§2)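 Biochemical TR-FRET disruption assay: nucleotide-loaded K-Ras with Cyclophilin A and a BRAF RBD construct, compound titrated over 10 points from 30 μM (final).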

[7] = molecular target: KRAS G13D (Homo sapiens, UniProt P01116+P62937, G13D); assay: as above; type: biochemical
Outline: as §2

[8] = molecular target: KRAS G12C (Homo sapiens, UniProt P01116+P62937, G12C); assay: as above; type: biochemical
Outline: as §2

[9] = molecular target: KRAS WT (Homo sapiens, UniProt P01116+P62937); assay: as above; type: biochemical
Outline: as §2

[10] = molecular target: KRAS G12S (Homo sapiens, UniProt P01116+P62937, G12S); assay: as above; type: biochemical
Outline: as §2

[11] = molecular target: KRAS G12V (Homo sapiens, UniProt P01116+P62937, G12V); assay: as above; type: biochemical
Outline: as §2

[12] = molecular target: KRAS G13C (Homo sapiens, UniProt P01116+P62937, G13C); assay: as above; type: biochemical
Outline: as §2

[13] = NCI-H358, H358 KRAS G12C, read-out: pERK EC50
[14] = NRAS G12C, read-out: NRAS G12C FRET data IC50

Sequence of NRAS G12C (P01111 whole entry G12C): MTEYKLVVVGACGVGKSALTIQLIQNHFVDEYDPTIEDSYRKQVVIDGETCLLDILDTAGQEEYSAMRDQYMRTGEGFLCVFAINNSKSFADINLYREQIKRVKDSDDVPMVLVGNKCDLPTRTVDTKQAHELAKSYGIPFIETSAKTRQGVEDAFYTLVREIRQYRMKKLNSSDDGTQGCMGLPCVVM
Sequence of NRAS G12C (P62937 whole entry): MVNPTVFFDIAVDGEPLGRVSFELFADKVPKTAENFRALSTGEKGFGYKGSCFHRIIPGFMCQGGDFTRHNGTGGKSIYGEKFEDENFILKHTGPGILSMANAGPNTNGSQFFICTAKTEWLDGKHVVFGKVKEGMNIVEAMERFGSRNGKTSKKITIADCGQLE
Sequence of NRAS Q61K (P01111 whole entry Q61K): as the sequence (P01111 whole entry G12C) above, with C12G, Q61K counted along it
Sequence of NRAS Q61K (P62937 whole entry): as the sequence (P62937 whole entry) above
Sequence of NRAS Q61R (P01111 whole entry Q61R): as the sequence (P01111 whole entry G12C) above, with C12G, Q61R counted along it
Sequence of NRAS Q61R (P62937 whole entry): as the sequence (P62937 whole entry) above
Sequence of KRAS G13D (P01116 1-169 isoform P01116-2 G13D limits assumed): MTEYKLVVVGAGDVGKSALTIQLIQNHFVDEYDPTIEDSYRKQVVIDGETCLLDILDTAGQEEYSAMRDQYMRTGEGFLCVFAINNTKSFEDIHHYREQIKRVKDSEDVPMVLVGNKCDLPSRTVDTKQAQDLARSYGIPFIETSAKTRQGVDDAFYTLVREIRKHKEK
Sequence of KRAS G13D (P62937 whole entry): as the sequence (P62937 whole entry) above
Sequence of KRAS G12S (P01116 1-169 isoform P01116-2 G12S limits assumed): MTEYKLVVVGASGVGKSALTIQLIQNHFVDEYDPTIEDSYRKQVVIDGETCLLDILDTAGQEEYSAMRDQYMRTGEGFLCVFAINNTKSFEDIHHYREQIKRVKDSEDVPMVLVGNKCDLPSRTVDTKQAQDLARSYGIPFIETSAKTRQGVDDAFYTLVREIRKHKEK
Sequence of KRAS G12S (P62937 whole entry): as the sequence (P62937 whole entry) above
Sequence of KRAS G13C (P01116 1-169 isoform P01116-2 G13C): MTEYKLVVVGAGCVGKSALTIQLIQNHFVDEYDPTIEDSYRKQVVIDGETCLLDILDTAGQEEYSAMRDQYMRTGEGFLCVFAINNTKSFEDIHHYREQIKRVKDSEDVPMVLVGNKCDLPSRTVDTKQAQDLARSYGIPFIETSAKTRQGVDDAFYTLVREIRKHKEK
Sequence of KRAS G13C (P62937 whole entry): as the sequence (P62937 whole entry) above
Sequence of KRAS G12D (P01116 1-169 isoform P01116-2 G12D limits assumed): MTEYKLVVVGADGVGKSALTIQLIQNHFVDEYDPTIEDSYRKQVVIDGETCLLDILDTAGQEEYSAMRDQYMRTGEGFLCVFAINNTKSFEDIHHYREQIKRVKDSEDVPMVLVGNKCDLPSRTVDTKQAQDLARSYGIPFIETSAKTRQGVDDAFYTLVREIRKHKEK
Sequence of KRAS G12D (P62937 whole entry): as the sequence (P62937 whole entry) above
Sequence of KRAS G12V (P01116 1-169 isoform P01116-2 G12V limits assumed): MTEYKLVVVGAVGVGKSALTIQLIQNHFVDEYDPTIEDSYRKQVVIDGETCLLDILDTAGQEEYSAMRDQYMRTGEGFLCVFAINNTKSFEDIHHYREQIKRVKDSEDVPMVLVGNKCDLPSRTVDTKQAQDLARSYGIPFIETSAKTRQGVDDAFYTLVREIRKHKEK
Sequence of KRAS G12V (P62937 whole entry): as the sequence (P62937 whole entry) above
Sequence of KRAS G12C (P01116 1-169 isoform P01116-2 G12C): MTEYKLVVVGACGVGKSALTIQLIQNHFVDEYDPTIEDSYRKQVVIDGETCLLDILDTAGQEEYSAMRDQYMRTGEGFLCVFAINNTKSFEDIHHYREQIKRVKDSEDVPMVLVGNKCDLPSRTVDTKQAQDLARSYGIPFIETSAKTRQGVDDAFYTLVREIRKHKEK
Sequence of KRAS G12C (P62937 whole entry): as the sequence (P62937 whole entry) above
Sequence of KRAS WT (P01116 1-169 isoform P01116-2 limits assumed): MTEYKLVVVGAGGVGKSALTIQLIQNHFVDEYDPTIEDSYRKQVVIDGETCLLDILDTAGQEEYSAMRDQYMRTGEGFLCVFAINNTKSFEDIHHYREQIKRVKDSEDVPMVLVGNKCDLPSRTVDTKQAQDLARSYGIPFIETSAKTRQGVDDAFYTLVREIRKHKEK
Sequence of KRAS WT (P62937 whole entry): as the sequence (P62937 whole entry) above

EC50 [1, 13]	IC50 [2]	IC50 [3]	IC50 [4]	IC50 [5, 14]	SMILES	other results
< 5000 nM	< 10 nM	100 to 1000 nM	100 to 1000 nM	10 to 100 nM	C=CC(=O)N1CC2(CCN2C(=O)N(C)[C@H](C(=O)N[C@H]2Cc3cccc(n3)-c3ccc4c(c3)c(c(-c3cccnc3[C@H](C)OC)n4CC)CC(C)(C)COC(=O)C3CCCN(N3)C2=O)C(C)C)C1 (stereo partly shown) [Example A636]	
< 5000 nM	< 10 nM	1000 to 10000 nM	1000 to 10000 nM	< 10 nM	C=CC(=O)Nc1cnc(OC[C@H](C(=O)N[C@H]2Cc3cccc(c3)-c3ccc4c(c3)c(c(-c3cccnc3[C@H](C)OC)n4CC)CC(C)(C)COC(=O)C3CCCN(N3)C2=O)C(C)C)n1C (stereo partly shown) [Example A600]	
< 5000 nM	< 10 nM	100 to 1000 nM	100 to 1000 nM	10 to 100 nM	C=CC(=O)N1CCO[C@H]2CN(C(=O)N(C)[C@H](C(=O)N[C@H]3Cc4cccc(n4)-c4ccc5c(c4)c(c(-c4cccnc4[C@H](C)OC)n5CC)CC(C)(C)COC(=O)C4CCCN(N4)C3=O)C(C)C)C[C@H]21 (stereo partly shown) [Example A597]	
< 5000 nM	10 to 100 nM	1000 to 10000 nM	1000 to 10000 nM	100 to 1000 nM	C=CC(=O)N1CC[C@H](C(=O)N(C)[C@H](C(=O)N[C@H]2Cc3cccc(c3)-c3ccc4c(c3)c(c(-c3cccnc3[C@H](C)OC)n4CC)CC(C)(C)COC(=O)C3CCCN(N3)C2=O)[C@H](C)C(F)(F)F)C1 (stereo partly shown) [Example A641]	
< 5000 nM	10 to 100 nM	1000 to 10000 nM	1000 to 10000 nM	100 to 1000 nM	C=CC(=O)N1CC[C@H](C(=O)N(C)[C@H](C(=O)N[C@H]2Cc3cccc(c3)-c3ccc4c(c3)c(c(-c3cccnc3[C@H](C)OC)n4CC)CC(C)(C)COC(=O)C3CCCN(N3)C2=O)[C@@H](C)C(F)(F)F)C1 (stereo partly shown) [Example A640]	
< 5000 nM	100 to 1000 nM	1000 to 10000 nM	1000 to 10000 nM	100 to 1000 nM	C=CC(=O)N1CC[C@H](C(=O)N(C)[C@@H](CC(F)(F)F)C(=O)N[C@H]2Cc3cccc(c3)-c3ccc4c(c3)c(c(-c3cccnc3[C@H](C)OC)n4CC)CC(C)(C)COC(=O)C3CCCN(N3)C2=O)C1 (stereo partly shown) [Example A639]	
< 5000 nM	< 10 nM			10 to 100 nM	CCn1c(-c2cccnc2[C@H](C)OC)c2c3cc(ccc31)-c1cccc(c1)C[C@H](NC(=O)[C@H](C(C)C)N(C)C(=O)[C@H]1CCN(C(=O)C#CC3CC(F)(F)CN3C)C1)C(=O)N1CCC[C@H](N1)C(=O)OCC(C)(C)C2 (stereo partly shown) [Example A526]	IC50 ([6]; read-out: KRAS G12D FRET data, IC50): > 10000 nM; IC50 ([7]; KRAS G13D, read-out: KRAS G13D FRET data IC50): > 10000 nM; IC50 ([8]; KRAS G12C, read-out: KRAS G12C FRET data IC50): 10 to 100 nM; IC50 ([9]; KRAS WT, read-out: KRAS WT FRET data IC50): 1000 to 10000 nM; IC50 ([10]; read-out: KRAS G12S FRET data, IC50): 1000 to 10000 nM; IC50 ([11]; KRAS G12V, read-out: KRAS G12V FRET data IC50): 1000 to 10000 nM; IC50 ([12]; KRAS G13C, read-out: KRAS G13C FRET data IC50): 1000 to 10000 nM

Continued, molecule first:

SMILES	EC50 [1, 13]	IC50 [2]	IC50 [3]	IC50 [4]	IC50 [5, 14]	other results
CO[C@@H](C)c1ncccc1-c1c2c3cc(ccc3n1CC(F)(F)F)-c1csc(n1)C[C@H](NC(=O)[C@H](C(C)C)N(C)C(=O)N1CCC3(CC1)CN(C(=O)/C=C/CF)C3)C(=O)N1CCCC(N1)C(=O)OCC(C)(C)C2 (stereo partly shown) [Example A602]	< 5000 nM	< 10 nM	10 to 100 nM	10 to 100 nM	10 to 100 nM	
C=CC(=O)N(C)CCC1CCN(C(=O)N(C)[C@H](C(=O)N[C@H]2Cc3nc(cs3)-c3ccc4c(c3)c(c(-c3cccnc3[C@H](C)OC)n4CC)CC(C)(C)COC(=O)C3CCCN(N3)C2=O)C(C)C)CC1 (stereo partly shown) [Example A621]	< 5000 nM	< 10 nM	10 to 100 nM	10 to 100 nM	10 to 100 nM	
CCn1c(-c2cccnc2[C@H](C)OC)c2c3cc(ccc31)-c1csc(n1)C[C@H](NC(=O)[C@H](C(C)C)N(C)C(=O)N1C[C@@H]3CN(C(=O)C#CC(C)(C)N(C)C)CC[C@@H]31)C(=O)N1CCCC(N1)C(=O)OCC(C)(C)C2 (stereo partly shown) [Example A625]	< 5000 nM	10 to 100 nM	100 to 1000 nM	100 to 1000 nM	100 to 1000 nM	
C=CC(=O)N1CCCC2(CCN(C(=O)N(C)[C@H](C(=O)N[C@H]3Cc4nc(cs4)-c4ccc5c(c4)c(c(-c4cccnc4[C@H](C)OC)n5CC)CC(C)(C)COC(=O)C4CCCN(N4)C3=O)C(C)C)CC2)C1 (stereo partly shown) [Example A635]	< 5000 nM	100 to 1000 nM	100 to 1000 nM	100 to 1000 nM	100 to 1000 nM	
CCn1c(-c2cccnc2[C@H](C)OC)c2c3cc(ccc31)N1CCC[C@@H](C[C@H](NC(=O)[C@H](C(C)C)N(C)C(=O)C3CCN(C(=O)C#CC(C)(C)N4CCC4)C3)C(=O)N3CCCC(N3)C(=O)OCC(C)(C)C2)C1 (stereo partly shown) [Example A617]	< 5000 nM	10 to 100 nM	> 10000 nM	> 10000 nM	10 to 100 nM	
CCn1c(-c2cccnc2[C@H](C)OC)c2c3cc(ccc31)-c1csc(n1)C[C@H](NC(=O)[C@H](F)COC1CN(C(=O)C#CC(C)(C)N(C)C)C1)C(=O)N1CCCC(N1)C(=O)OCC(C)(C)C2 (stereo partly shown) [Example A627]	< 5000 nM	< 10 nM	> 10000 nM	> 10000 nM	< 10 nM	
C=CC(=O)N1CC2[C@@H](C1)CN2C(=O)N(C)[C@H](C(=O)N[C@H]1Cc2nc(cs2)-c2ccc3c(c2)c(c(-c2cccnc2[C@H](C)OC)n3CC)CC(C)(C)COC(=O)[C@@H]2CCCN(N2)C1=O)C(C)C (stereo partly shown) [Example A686]	< 5000 nM	< 10 nM	10 to 100 nM	100 to 1000 nM	10 to 100 nM	
C=CC(=O)N(C)[C@H]1CN(C(=O)N(C)[C@H](C(=O)N[C@H]2Cc3nc(cs3)-c3ccc4c(c3)c(c(-c3cccnc3[C@H](C)OC)n4CC)CC(C)(C)COC(=O)C3CCCN(N3)C2=O)C(C)C)C[C@H]1F (stereo partly shown) [Example A631]	< 5000 nM	< 10 nM	10 to 100 nM	100 to 1000 nM	10 to 100 nM	
C=CC(=O)N1CC2(C1)OCCN2C(=O)N(C)[C@H](C(=O)N[C@H]1Cc2nc(cs2)-c2ccc3c(c2)c(c(-c2cccnc2[C@H](C)OC)n3CC)CC(C)(C)COC(=O)C2CCCN(N2)C1=O)C(C)C (stereo partly shown) [Example A620]	< 5000 nM	< 10 nM	10 to 100 nM	100 to 1000 nM	< 10 nM	
C=CC(=O)N(C)[C@H]1CN(C(=O)N(C)[C@H](C(=O)N[C@H]2Cc3nc(cs3)-c3ccc4c(c3)c(c(-c3cccnc3[C@H](C)OC)n4CC)CC(C)(C)COC(=O)C3CCCN(N3)C2=O)C(C)C)C[C@@H]1F (stereo partly shown) [Example A632]	< 5000 nM	100 to 1000 nM	100 to 1000 nM	100 to 1000 nM	10 to 100 nM	
C=CC(=O)N1CC[C@H](C(=O)N(C)[C@H](C(=O)N[C@H]2Cc3cccc(c3)-c3ccc4c(c3)c(c(-c3cccnc3[C@H](C)OC)n4CC)CC(C)(C)COC(=O)[C@@H]3CCCN(O3)C2=O)C(C)C)C1 [Example A284]		100 to 1000 nM				EC50 ([1]; NCI-H358, read-out: pERK EC50): < 5000 nM; IC50 ([5]; NRAS G12C FRET data IC50, NRAS G12C): 1000 to 10000 nM; IC50 ([6]; KRAS G12D FRET data, IC50): > 10000 nM; IC50 ([7]; KRAS G13D FRET data IC50, KRAS G13D): > 10000 nM; IC50 ([8]; KRAS G12C FRET data IC50, KRAS G12C): 100 to 1000 nM; IC50 ([9]; KRAS WT FRET data IC50, KRAS WT): > 10000 nM; IC50 ([10]; KRAS G12S FRET data, IC50): > 10000 nM; IC50 ([11]; KRAS G12V FRET data IC50, KRAS G12V): > 10000 nM; IC50 ([12]; KRAS G13C FRET data IC50, KRAS G13C): 1000 to 10000 nM
